This data set concerns pigs. The data set can be described thus: Intrapericardial administration of RTX alone or RTX in combination with QX-314 in anesthetized pigs; heart rate and blood pressure. The class given is in vivo. The note with it: 15 mL, RTX 12.5 µg/mL, QX-314 10, 20, 30 or 40 µM where combined, aspirated after 20 minutes. As to the method: We evaluated the effects of the TRPV1 modulator RTX alone and in combination with QX-314 on cardiovascular function, specifically heart rate and blood pressure, in pigs. Animals were first sedated with telazol (4-8 mg/kg, intramuscular), intubated, and mechanically ventilated. General anesthesia was maintained with isoflurane (1-2%, inhaled). A 12-lead surface electrocardiogram and arterial blood pressure were continuously obtained using a GE Healthcare CardioLab system. Local anesthesia with 1% lidocaine was then administered to the left sternocostal angle before making a small incision. Percutaneous access into the pericardial space was obtained using a Touhy needle under fluoroscopic guidance (see FIG. 1). Contrast was used to visualize the advancement of the needle tip, and intrapericardial access was confirmed by passing a wire through the needle and inducing cardiac ectopy. After confirming access, a sheath was introduced into the pericardial space over the wire. A 12.5 µg/mL RTX solution was prepared by first creating a stock solution of 0.1 mg/mL by dissolving 0.5 mg of RTX powder in 2.5 mL of dimethyl sulfoxide and 2.5 mL of 0.9% sodium chloride, and then diluting the stock solution to 12.5 µg/mL by adding 1.87 mL of it to 13.13 mL of 0.9% sodium chloride. […]

The structures appear in SMILES notation.

From US20230049330A1, “USE OF QX314 TO PREVENT SYMPATHO[…] ADMINISTRATION OF TRPV1 MODULATORS” (NEUCURES, INC., priority 2020, published 2023) come the findings set out here.

Take `C=C(C)[C@]12C[C@@H](C)[C@@]34O[C@](Cc5ccccc5)(O[C@@H]1[C@@H]3C=C(COC(=O)Cc1ccc(O)c(OC)c1)C[C@]1(O)C(=O)C(C)=C[C@@H]41)O2` [RTX, resiniferatoxin]: the “blood pressure change from baseline (FIG. 2B, FIG. 2C)” value was “significant increase” and the “heart rate change from baseline (FIG. 2A)” value was “significant increase”.
